Results: patent publication US6716833B2, “Acetylenic α-amino acid-based sulfonamide hydroxamic acid tace inhibitors” (priority 1999, dated 2004)
pIC50: −log10 of the molar value. Structures can show the parent of a compound that is named as a salt. Where two headings read alike, the source gives them in different places.

How the values were obtained:
THP-1 cells = experiment: THP-1 soluble protein assay, soluble TNF-α (ELISA); type: cell-based, human; conditions: for inhibition at 3 µM: Homo sapiens, THP-1, 3 μM, read-out: THP % Inhibition @ 3 μM
Procedure: Each vial of cells are cultured for about two weeks prior to being used for an assay and then are used for only 4 to 6 weeks to screen compounds.
Cell exposure to DMSO was limited to 0.1% final concentration. […] Plates are placed into an incubator set at 5% CO2 and at 37° C. After 4 hours of incubation, 300 ml/well of tissue culture supernatant (TCS) is removed for use in an TNF-α ELISA.
Percent change in each soluble protein evaluated from the “vehicle positive control” was calculated for each compound concentration with the following formula:
% Change=pg/ml (compound)−pg/ml (veh pos control)/(veh pos control)−pg/ml (veh neg control)×100
For the soluble protein (TNF-α, p75/80, p55/60, IL-8) studies under stimulated conditions, the mean pg/ml of duplicate wells were determined and the results expressed as percent change from “vehicle positive control”.

MMP-9 = MMP-9 (Homo sapiens, UniProt P14780); experiment: MMP-9 inhibition (thiopeptide or fluorescent peptide substrate); type: biochemical
MMP-9, sequence (P14780 94-707): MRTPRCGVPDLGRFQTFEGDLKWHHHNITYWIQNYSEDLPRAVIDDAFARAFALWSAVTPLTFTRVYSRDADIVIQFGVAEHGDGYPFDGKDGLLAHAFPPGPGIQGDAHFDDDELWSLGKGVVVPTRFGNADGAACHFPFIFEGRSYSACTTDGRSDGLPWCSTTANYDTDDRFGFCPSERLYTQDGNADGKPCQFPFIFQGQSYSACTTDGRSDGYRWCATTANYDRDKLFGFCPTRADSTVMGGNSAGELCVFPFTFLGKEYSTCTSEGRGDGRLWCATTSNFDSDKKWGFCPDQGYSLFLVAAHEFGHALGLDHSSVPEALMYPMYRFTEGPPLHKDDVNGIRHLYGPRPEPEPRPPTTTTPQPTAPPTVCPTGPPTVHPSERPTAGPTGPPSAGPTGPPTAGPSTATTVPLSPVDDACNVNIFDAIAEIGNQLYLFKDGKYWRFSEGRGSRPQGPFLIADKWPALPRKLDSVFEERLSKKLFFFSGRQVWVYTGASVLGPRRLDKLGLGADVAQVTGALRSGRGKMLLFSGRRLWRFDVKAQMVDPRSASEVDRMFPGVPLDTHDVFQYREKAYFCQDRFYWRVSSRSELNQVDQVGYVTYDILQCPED
Procedure: (§1) The enzyme activity is measured by the rate of the color increase. The thiopeptide substrate is made up fresh as a 20 mM stock in 100% DMSO and the DTNB is dissolved in 100% DMSO as a 100 mM stock and stored in the dark at room temperature. Both the substrate and DTNB are diluted together to 1 mM with substrate buffer (50 mM HEPES pH 7.5, 5 mM CaCl2) before use. The stock of enzyme is diluted with buffer (50 mM HEPES, pH 7.5, 5 mM CaCl2, 0.02% Brij) to the desired final concentration.
(§2) Alternatively, a fluorescent peptide substrate is used. In this test procedure, the peptide substrate contains a fluorescent group and a quenching group. Upon cleavage of the substrate by an MMP, the fluorescence that is generated is quantitated on the fluorescence plate reader. The assay is run in HCBC assay buffer (50 mM HEPES, pH 7.0, 5 mM Ca^+2, 0.02% Brij, 0.5% Cysteine), with human recombinant MMP-1, MMP-9, or MMP-13. […] For the assay, substrate and enzymes are diluted in HCBC buffer to the desired concentrations. Compounds are added to the 96 well plate containing enzyme and the reaction is started by the addition of substrate.
(§3) For either the thiopeptide or fluorescent peptide test procedures, the slope of the line is calculated and represents the reaction rate. The linearity of the reaction rate is confirmed (r^2>0.85). The mean (x±sem) of the control rate is calculated and compared for statistical significance (p<0.05) with drug-treated rates using Dunnett's multiple comparison test.

MMP-13 = MMP-13 (Homo sapiens, UniProt P45452); experiment: MMP-13 inhibition (thiopeptide or fluorescent peptide substrate); type: biochemical
Procedure: as §1, §2, §3

MMP-1 = molecular target: T1, MMP-1 (Homo sapiens, UniProt P03956); experiment: MMP-1 inhibition (thiopeptide or fluorescent peptide substrate); type: biochemical
T1 sequence (P03956 100-469): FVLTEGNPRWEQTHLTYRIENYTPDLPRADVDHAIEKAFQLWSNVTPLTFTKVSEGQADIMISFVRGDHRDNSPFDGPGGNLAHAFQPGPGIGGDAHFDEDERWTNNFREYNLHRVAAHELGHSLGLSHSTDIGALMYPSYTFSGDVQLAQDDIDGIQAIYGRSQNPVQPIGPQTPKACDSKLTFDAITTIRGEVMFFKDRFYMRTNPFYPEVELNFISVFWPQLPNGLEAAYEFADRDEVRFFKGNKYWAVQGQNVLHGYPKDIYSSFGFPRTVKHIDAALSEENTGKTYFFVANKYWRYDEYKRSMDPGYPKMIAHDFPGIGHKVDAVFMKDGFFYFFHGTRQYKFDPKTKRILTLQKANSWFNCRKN

[1] = molecular target: TNF-α converting enzyme (TACE) (Homo sapiens, UniProt P78536); experiment: TACE inhibition (fluorescent peptidyl substrate); type: biochemical; conditions: read-out: TACE IC50
TNF-α converting enzyme (TACE), sequence (P78536 215-824, species assumed): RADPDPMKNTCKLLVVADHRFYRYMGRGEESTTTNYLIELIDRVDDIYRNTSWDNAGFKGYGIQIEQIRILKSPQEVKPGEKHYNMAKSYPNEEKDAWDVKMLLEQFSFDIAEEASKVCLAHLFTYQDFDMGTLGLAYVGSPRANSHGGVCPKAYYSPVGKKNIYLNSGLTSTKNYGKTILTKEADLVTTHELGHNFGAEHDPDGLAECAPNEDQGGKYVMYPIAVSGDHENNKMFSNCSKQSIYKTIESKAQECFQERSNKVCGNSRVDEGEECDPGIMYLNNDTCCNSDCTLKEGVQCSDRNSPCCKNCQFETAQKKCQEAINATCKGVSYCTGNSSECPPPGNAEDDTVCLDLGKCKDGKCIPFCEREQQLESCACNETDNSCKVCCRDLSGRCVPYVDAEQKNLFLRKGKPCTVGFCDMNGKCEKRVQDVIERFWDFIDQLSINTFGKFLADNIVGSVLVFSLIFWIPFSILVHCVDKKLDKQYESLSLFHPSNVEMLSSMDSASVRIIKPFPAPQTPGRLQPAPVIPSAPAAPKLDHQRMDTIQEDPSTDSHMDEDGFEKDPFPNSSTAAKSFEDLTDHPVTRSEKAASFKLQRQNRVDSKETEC
Procedure: Using 96-well black microtiter plates, each well receives a solution composed of 10 μL TACE (final concentration 1 μg/mL), 70 μL Tris buffer, pH 7.4 containing 10% glycerol (final concentration 10 mM), and 10 μL of test compound solution in DMSO (final concentration 1 μM, DMSO concentration <1%) and incubated for 10 minutes at room temperature.
The reaction is read (excitation 340 nm, emission 420 nm) for 10 min. and the increase in fluorescence over time is plotted as a linear line. The slope of the line is calculated and represents the reaction rate.
The linearity of the reaction rate is confirmed (r^2>0.85). The mean (x±sem) of the control rate is calculated and compared for statistical significance (p<0.05) with drug-treated rates using Dunnett's multiple comparison test.

Molecule | pIC50 (MMP-9; read-out: MMP-9 IC50) | pIC50 (MMP-13; read-out: MMP-13 IC50) | pIC50 (MMP-1; read-out: MMP-1 IC50) | pIC50 [1] | inhibition at 3 µM (THP-1 cells; THP-1 cells) [%] | also measured
2-[(4-but-2-Ynylthiophenylsulfonyl)methylamino]-N-hydroxyacetamide [Example 134] | 6.95 | 7.08 | 5.31 |  |  | THP % Inhibition @ 3 μM (THP-1 cells; THP-1 cells): 14%
2-[[4-Butynyloxy-phenylsulfonyl]-amino]-N-hydroxy-3-(pyridinylthio)propanamide [Example 169] | 6.80 | 7.55 | 5.72 | 8.54 |  | THP % Inhibition @ 3 μM (THP-1 cells; THP-1 cells): 77%
CC#CCOc1ccc(S(=O)(=O)NCC(=O)NO)cc1 [Example 25, 2-(4-but-2-ynyloxy-Benzenesulfonylamino)-N-hydroxy-acetamide] | 6.12 |  |  | 8.32 | 39 | MMP-1 % inhibition (10) (MMP-1; at (10), concentration unit not given): 47%(10)
CC#CCOc1ccc(S(=O)(=O)NC(C(=O)NO)C(C)C)cc1 (centres unmarked) [Example 27, 2-(4-but-2-ynyloxy-Benzenesulfonylamino)-N-hydroxy-3-methyl-butyramide] |  |  |  | 7.49 | 75 | pIC50 (MMP-9; MMP-9 IC50): 7.38; pIC50 (MMP-13; MMP-13 IC50): 7.74; pIC50 (MMP-1; MMP-1 IC50): 5.53
CC#CCOc1ccc(S(=O)(=O)NC(C)C(=O)NO)cc1 (centres unmarked) [Example 30, 2-(4-but-2-ynyloxy-Benzenesulfonylamino)-N-hydroxy-propionamide] | 6.58 | 7.40 | 5.36 | 8.22 | 60 | 
CC#CCOc1ccc(S(=O)(=O)NC(C)(C)C(=O)NO)cc1 [Example 35, 2-(4-but-2-ynyloxy-Benzenesulfonylamino)-N-hydroxy-2-methyl-propionaiwde] | 5.86 | 6.40 |  | 7.89 | 9 | 
CC1(C)SCCN(S(=O)(=O)c2ccc(OCC#CCO)cc2)C1C(=O)NO (centres unmarked) [Example 61, 4-[4-(4-Hydroxy-but-2-ynyloxy)-benzenesulfonyl]-2,2-dimethyl-thiomorpholine-3-carboxylic Acid Hydroxyamide] |  |  |  |  |  | inhibition at 3 µM (THP-1 cells; Table 10): 89%; pIC50 (MMP-9; MMP-9 IC50, Table 10): 7.15; pIC50 (MMP-13; Table 10, read-out: MMP-13 IC50): 7.89; pIC50 ([1]; Table 10): 7.40; pIC50 (MMP-1; Table 10, read-out: MMP-1 IC50): 7.62
CC#CCOc1ccc(S(=O)(=O)N[C@@H](C(=O)NO)[C@@H](C)CC)cc1 [Example 105, (2R,3S)-2-({[4-(2-Butynyloxy)phenyl]sulfonyl}amino)-N-hydroxy-3-methylpentanamide] | 6.67 | 7.28 | 5.76 | 8.17 | 87 | 
CC#CCOc1ccc(S(=O)(=O)N[C@@H](C(=O)NO)C(C)(C)C)cc1 [Example 106, (2R)-2-({[4-(2-Butynyloxy)phenyl]sulfonyl)amino)-N-hydroxy-3,3-dimethylbutanamide] | 6.65 | 7.39 | 6.06 | 7.77 | 91 | 
CC#CCOc1ccc(S(=O)(=O)N(CC#CCN(CC)CC)C(C(=O)NO)C(C)C)cc1 (centres unmarked) [Example 126] | 6.83 | 7.44 | 6.67 | 7.14 |  | THP % Inhibition @ 3 μM (THP-1 cells; THP-1 cells): 93%
CC#CCOc1ccc(S(=O)(=O)N[C@@H](C(=O)NO)C2CCC(O)CC2)cc1 (stereo partly drawn) [Example 129, (2R)-{[4-(2-Butynyloxy)phenyl]sulfonyl}amino-N-hydroxy-2-(4-hydroxycyclohexyl)ethanamide] | 6.72 | 7.55 | 5.98 | 8.13 | 92 | melting point: 180 to 182 °C
CN(CC(=O)NO)S(=O)(=O)c1ccc(OCC#Cc2ccc(Cl)cc2)cc1 [Example 132] | 5.62 | 5.95 | < 5.00 | 5.96 |  | THP % Inhibition @ 3 μM (THP-1 cells; THP-1 cells): 27%
CC#CCOc1ccc(S(=O)(=O)NC2(C(=O)NO)CCCCC2)cc1 [Example 138, 1-({[4-(2-Butynyloxy)phenyl]sulfonyl}amino)-N-hydroxycyclohexanecarboxamide] | 5.66 | 6.21 | 5.29 | 7.57 | 19 | melting point: 82 to 84 °C
CC#CCOc1ccc(S(=O)(=O)NC2(C(=O)NO)CCCC2)cc1 [Example 139, 1-({[4-(2-Butynyloxy)phenyl]sulfonyl}amino)-N-hydroxycyclopentanecarboxamide] | 5.43 | 5.90 | < 5.00 | 7.43 | 26 | melting point: 66 to 68 °C
CC#CCOc1ccc(S(=O)(=O)N(C)C(C(=O)NO)C(C)(C)SCCN2CCCC2C(=O)OC)cc1 (centres unmarked) [Example 145] | 8.15 | 8.60 | 7.74 | 6.96 |  | THP % Inhibition @ 3 μM (THP-1 cells; THP-1 cells): 83%
CC#CCOc1ccc(S(=O)(=O)N(C)[C@H](CSC)C(=O)NO)cc1 [Example 154] | 7.72 | 8.27 | 7.33 | 8.48 | 90 | 
CC#CCOc1ccc(S(=O)(=O)N[C@@H](C(=O)NO)C(C)(C)SC)cc1 [Example 158] | 6.79 | 7.52 | 5.99 | 7.60 | 78 | melting point: 128 to 132 °C
CC#CCOc1ccc(S(=O)(=O)NC(C(=O)NO)C(C)(C)SCC)cc1 (centres unmarked) [Example 159, 2-[(4-but-2-ynyloxy-Benenesulfonyl)-amino]-N-hydroxy-3-methyl-3-ethylsulfanyl-butyramide] | 6.37 | 7.38 | 6.07 | 7.92 | 76 | melting point: 46 to 50 °C
CC#CCOc1ccc(S(=O)(=O)NC(C(=O)NO)C(C)(C)SCc2cccnc2)cc1 (centres unmarked) [Example 161] | 6.89 | 8.10 | 6.32 | 8.19 |  | THP % Inhibition @ 3 μM (THP-1 cells; THP-1 cells): 81%
CC#CCOc1ccc(S(=O)(=O)NC(C(=O)NO)C(C)(C)SCC(=O)O)cc1 (centres unmarked) [Example 166, tert-Butyl {[2-({[4-2-Butynyloxy)phenyl]sulfonyl}amino)-3-(hydroxyamino)-1,1-dimethyl-3-oxopropyl]sulfanyl Acetic Acid, Sodium Salt] | 5.53 | 6.62 | 5.72 |  | 55 | 
CC#CCOc1ccc(S(=O)(=O)NC(CSC)C(=O)NO)cc1 (centres unmarked) [Example 167] | 6.64 |  | 5.76 | 8.46 |  | THP % Inhibition @ 3 μM (THP-1 cells; THP-1 cells): 77%
CC#CCOc1ccc(S(=O)(=O)NC(CSCc2ccccc2)C(=O)NO)cc1 (centres unmarked) [Example 168] | 6.85 |  | 5.71 | 8.35 |  | THP % Inhibition @ 3 μM (THP-1 cells; THP-1 cells): 62%
CC#CCOc1ccc(S(=O)(=O)NC(CSCCCCCCCCCC/C=C\CC)C(=O)NO)cc1 (centres unmarked) [Example 170, 2-({[4-(2-butynyloxy)phenyl]sulfonyl}amino)-N-hydroxy-3-[(Z)-11-tetradecenylsulfanyl]propanamide] | 5.80 | 6.49 | < 5.00 | 6.57 | 7 | 
CC#CCOc1ccc(S(=O)(=O)N2CCN(S(C)(=O)=O)CC2C(=O)NO)cc1 (centres unmarked) [Example 227, 1-(4-but-2-ynyloxy-Benzenesulfonyl)-4-methanesulfonyi-piperazine-2-carboxylic Acid Hydroxyamide] | 7.29 | 8.19 | 7.02 |  | 81 | 
CC#CCOc1ccc(S(=O)(=O)N2C[C@@H](CNC(=O)OC(C)(C)C)SC(C)(C)[C@@H]2C(=O)NO)cc1 [Example 273, tert-Butyl{(2R,5S)-4-{[4-(2-butynyloxy)phenyl]sulfonyl}-5-[(hydroxyamino)carbonyl]-6,6-dimethylthiomorpholinyl}methylcarbamate] |  |  |  |  |  | inhibition at 3 µM (THP-1 cells; Table 11): 90%; pIC50 (MMP-9; Table 11, read-out: MMP-9 IC50): 7.21; pIC50 ([1]; Table 11): 7.06
CC#CCOc1ccc(S(=O)(=O)N2C[C@H](CNC(=O)OC(C)(C)C)SC(C)(C)[C@@H]2C(=O)NO)cc1 [Example 274, tert-Butyl{(2S,5S)-4-{[4-(2-butynyloxy)phenyl]sulfonyl}-5-[(hydroxyamino)carbonyl]-6,6-dimethylthiomorpholinyl}methylcarbamate] |  |  |  |  |  | THP % Inhibition @ 3 μM (THP-1 cells; Table 11): 84%; pIC50 (MMP-9; Table 11, read-out: MMP-9 IC50): 6.97; pIC50 ([1]; Table 11): 7.23
CC#CCOc1ccc(S(=O)(=O)NC2(C(=O)NO)CCNCC2)cc1 [Example 288, 4-({[4-(2-Butynyloxy)phenyl]sulfonyl}amino)-N-hydroxy-4-piperidinecarboxamide] |  | < 5.00 | < 5.00 | 7.30 | 25 | 
